pIC50: −log10 of the molar value.
Experiments:
PAF-induced hypotension = test: Inhibition of PAF-induced hypotension; type: in vivo, Wistar-Imamichi rats; conditions: Rattus norvegicus, iv, 1 min; anesthetized rats; l-C16:0 PAF 10 ng/kg i.v.; test compound i.v. cumulatively, 1 min before PAF; read-out: Inhibitory effect ID50
Protocol: Inhibition of PAF-induced hypotension
The test animals used were Wistar-Imamichi rats, each weighing from 350 to 450 g, anesthetized with Inactin (90 mg/kd, intraperitoneally).
Blood pressure was continuously measured throughout the experiment through a cannula inserted into the femoral artery. Each drug sample to be tested was intravenously injected through a cannula inserted into the femoral vein.
At first, l-C16:0 PAF was injected intravenously in amounts of 10 ng/kg at each injection at intervals of 5 minutes until the degree of the hypotensive response became constant. Then, each drug sample to be treated was intravenously injected. After one minute, the same dose of PAF was administered again. The drug sample was cumulatively administered. From its inhibition rate against the PAF-induced hypotensive effect, the 50% inhibitive dose (ID50) was determined, and is regarded as an index of PAF-antagonist activity. For administration, the PAF was dissolved in physiological saline solution containing 0.25% w/v of bovine serum albumin (BSA). The compounds under test were dissolved in dimethylformamide for use.
CV-3988 is disclosed in U.S. Pat. No. 4,408,052, and is structurally related to PAF itself.
In this Table, the compounds of the invention are identified by the number of the foregoing Example in which they were prepared.

[1] = system: blood platelet (PAF-induced aggregation); test: Inhibitory effect in vitro against PAF-induced blood platelet aggregation; type: cell-based; conditions: Oryctolagus cuniculus, 5 min; rabbit platelet rich plasma; l-C16:0 PAF final 10^-8 ~3×10^-8 M; 5 min observation
Protocol: Inhibitory effect in vitro against PAF-induced blood platelet aggregation
Blood samples were drawn from a rabbit and one part by volume of each sample was immediately mixed with 1/9 part of a 3.8% w/v aqueous solution of sodium citrate. The samples were centrifuged at 150×G at room temperature for 15 minutes to obtain a platelet rich plasma (PRP) fraction from the upper layer. The remains were further centrifuged at 1,000×G for 15 minutes to obtain a platelet poor plasma (PPP) fraction from the upper layer. The PRP and PPP fractions were mixed appropriately, to obtain a sample in which the final count of blood platelets was adjusted to be 6×10^5 per ul. According to the method reported by Born et al. [G. V. R. Born et al.: J. Physiol. 62, 67-68 (1962)], blood platelet aggregation was determined by an increase in light transmission measured using an aggregometer. 3 ul of a solution of the test compound in dimethyl sulfoxide were added to 272 ul of PRP, and, after 1 minute, 25 ul of a physiological saline solution containing l-c16:0 PAF (at a final concentration of 10^-8 ~3×10^-8 M) were added. […] At the end of this value and the value of PAF-induced aggregation which was observed when dimethyl sulfoxide only was used without the addition of any test compound. IC50 values were calculated from the dose-response curve.

PAF-receptor = target: T1, PAF-receptor (Oryctolagus cuniculus, UniProt G1TEI7); test: Inhibitor effect on PAF-receptor binding; conditions: specific binding of ^3H-PAF; rabbit platelet PAF-receptor membrane fraction; read-out: Inhibition of receptor binding (IC50 M)
T1 construct: is regarded as a PAF-receptor membrane fraction; from tissue; host or cells: rabbit blood platelets (membrane fraction from sucrose density layers)
Source text: Inhibitor effect on PAF-receptor binding
Blood samples were drawn from the heart of a rabbit. 1 part by volume of each sample was mixed immediately with 1/9 part of 0.77M solution of disodium ethylenediaminetetraacetate. After a similar procedure to that described in Experiment 2, a precipitated blood platelet sample was obtained. This blood platelet sample was washed, and, after repeated freezing and thawing for cellular breakdown, it was laid on top of double layers consisting of […] and 1.5M sucrose solutions. By centrifugation at 63,500×G, for 2 hours at 4° C., the fraction obtained from the interface between the 0.25M and 1.5M sucrose solutions was collected and is regarded as a PAF-receptor membrane fraction. A receptor binding experiment was conducted according to a method very similar to that reported by Hwang et al. [San-Bao Hwang et al.: J. Biol. Chem. 260, 15639-15645 (1985)]. The specific binding of ^3 H-PAF was measured using a Wattman GF/C filter. A test compound was dissolved in dimethyl sulfoxide and diluted 100 fold with a buffer solution containing 0.5% bovine serum albumin. Nine parts by weight of the solution, for a receptor binding experiment, was mixed with one part of the test compound solution prepared above. The percent inhibition of the specific binding was plotted for a log concentration of the test compound, and the 50% inhibitory concentration (IC50) was calculated from the linear line connecting all the plotted points.

T1 sequence (G1TEI7 1-342): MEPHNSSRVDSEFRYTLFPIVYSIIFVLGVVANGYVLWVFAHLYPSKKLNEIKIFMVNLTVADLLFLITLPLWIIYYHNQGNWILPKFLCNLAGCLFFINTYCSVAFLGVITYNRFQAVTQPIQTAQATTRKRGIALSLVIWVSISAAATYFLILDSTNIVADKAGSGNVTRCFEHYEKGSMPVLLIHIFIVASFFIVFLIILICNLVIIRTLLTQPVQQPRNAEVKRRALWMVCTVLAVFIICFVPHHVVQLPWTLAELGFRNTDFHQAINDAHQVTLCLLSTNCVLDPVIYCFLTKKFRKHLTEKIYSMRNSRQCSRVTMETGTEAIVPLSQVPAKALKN

pIC50 [1]	pIC50 (PAF-receptor)	Compound	ED50 (PAF-induced hypotension)
7.18	7.68	CCCOc1ccc(/C(=C/C(=O)N2CCN(C(=O)c3cc(OC)c(OC)c(OC)c3)CC2)c2ccc(Cl)c(Cl)c2)cc1 [Example 49, 1-[(Z)-3-(3,4-Dichlorophenyl)-3-(4-propoxyphenyl)acryloyl]-4-(3,4,5-trimethoxybenzoyl)piperazine]	8 µg/kg
6.59	7.33	COc1cc(C(=O)N2CCN(C(=O)/C=C(/c3ccccc3)c3cccs3)CC2)cc(OC)c1OC [Example 5, 1-[(Z)-3-Phenyl-3-(2-thienyl)acryloyl]-4-(3,4,5-trimethoxybenzoyl)piperazin]	54 µg/kg
7.59	7.85	COc1ccc(/C(=C/C(=O)N2CCN(C(=O)c3cc(OC)c(OC)c(OC)c3)CC2)c2cc(Cl)cc(Cl)c2)cc1 [Example 77, 1-[(Z)-3-(4-Methoxyphenyl)-3-(3,5-dichlorophenyl)acryloyl]-4-(3,4,5-trimethoxybenzoyl)piperazine]	3.7 µg/kg
7.41	7.80	COc1ccc(/C(=C/C(=O)N2CCN(C(=O)c3cc(OC)c(OC)c(OC)c3)CC2)c2cccc(Cl)c2)cc1 [Example 45, 1-[(Z)-3-(3-Chlorophenyl)-3-(4-methoxyphenyl)acryloyl]-4-(3,4,5-trimethoxybenzoyl)piperazine]	6.6 µg/kg
–	7.89	COc1cccc(/C(=C/C(=O)N2CCN(C(=O)c3cc(OC)c(OC)c(OC)c3)CC2)c2cccc(Cl)c2)c1 [Example 43, 1-[(Z)-3-(3-Chlorophenyl)-3-(3-methoxyphenyl)acryloyl]-4-(3,4,5-trimethoxybenzoyl)piperazine]	4.4 µg/kg
–	7.70	COc1ccc(/C(=C/C(=O)N2CCN(C(=O)c3cc(OC)c(OC)c(OC)c3)CC2)c2ccccc2Cl)cc1 [Example 42, 1-[(Z)-3-(2-chlorophenyl)-3-(4-methoxyphenyl)acryloyl]-4-(3,4,5-trimethoxybenzoyl)piperazine]	5 µg/kg
6.49	7.33	COc1cc(C(=O)N2CCN(C(=O)C=C(c3ccccc3)c3ccccc3)CC2)cc(OC)c1OC [Example 1, 1-(3,3-Diphenylacryloyl)-4-(3,4,5-trimethoxybenzoyl)piperazine]	57 µg/kg
7.19	7.12	COc1ccc(/C(=C/C(=O)N2CCN(C(=O)c3cc(OC)c(OC)c(OC)c3)CC2)c2cc(F)cc(F)c2)cc1 [Example 87, 1-[(Z)-3-(4-Methoxyphenyl)-3-(3,5-difluorophenyl)acryloyl]-4-(3,4,5-trimethoxybenzoyl)piperazine]	11 µg/kg
7.00	7.64	COc1ccc(/C(=C/C(=O)N2CCN(C(=O)c3cc(OC)c(OC)c(OC)c3)CC2)c2cccc(C(F)(F)F)c2)cc1 [Example 75, 1-[(Z)-3-(4-Methoxyphenyl)-3-(3-trifluoromethylphenyl)acryloyl]-4-(3,4,5-trimethoxybenzoyl)piperazine]	5.1 µg/kg
7.17	6.77	COc1cc(C(=O)N2CCN(C(=O)C=C(c3cccc(Cl)c3)c3cccc(Cl)c3)CC2)cc(OC)c1OC [Example 41, 1-[3,3-Bis(3-chlorophenyl)acryloyl]-4-(3,4,5-trimethoxybenzoyl)piperazine]	7.1 µg/kg
7.51	7.49	COc1ccc(/C(=C/C(=O)N2CCN(C(=O)c3cc(OC)c(OC)c(OC)c3)CC2)c2cccc(Cl)c2Cl)cc1 [Example 81, 1-[(Z)-3-(4-Methoxyphenyl)-3-(2,3-dichlorophenyl)acryloyl]-4-(3,4,5-trimethoxybenzoyl)piperazine]	–
–	7.46	COc1cc(C(=O)N2CCN(C(=O)C=C(c3cccc(C)c3)c3cccc(C)c3)CC2)cc(OC)c1OC [Example 56, 1-[3,3-Bis(3-Methylphenyl)acryloyl]-4-(3,4,5-trimethoxybenzoyl)piperazine]	11 µg/kg
–	7.70	CCOc1ccc(/C(=C/C(=O)N2CCN(C(=O)c3cc(OC)c(OC)c(OC)c3)CC2)c2cc(Cl)cc(Cl)c2)cc1 [Example 85, 1-[(Z)-3-(4-Ethoxyphenyl)-3-(3,5-dichlorophenyl)acryloyl]-4-(3,4,5-trimethoxybenzoyl)piperazine]	6.1 µg/kg
–	7.59	COc1cccc(/C(=C/C(=O)N2CCN(C(=O)c3cc(OC)c(OC)c(OC)c3)CC2)c2ccccc2Cl)c1 [Example 72, 1-[(Z)-3-(3-Methoxyphenyl)-3-(2-chlorophenyl)acryloyl]-4-(3,4,5-trimethoxybenzoyl)piperazine]	9.7 µg/kg
6.74	–	COc1ccc(/C(=C\C(=O)N2CCN(C(=O)c3cc(OC)c(OC)c(OC)c3)CC2)c2ccc(OC)c(OC)c2)cc1 [Example 29, 1-[(E)-3-(3,4-Dimethoxyphenyl)-3-(4-methoxyphenyl)acryloyl]-4-(3,4,5-trimethoxybenzoyl)piperazine]	48 µg/kg
–	5.80	CCCCCCCCCCCCCCCCCCNC(=O)OCC(COP(=O)([O-])OCC[n+]1ccsc1)OC (racemic) [CV-3988, reference compound]	420 µg/kg
7.37	–	COc1ccc(/C(=C/C(=O)N2CCN(C(=O)c3cc(OC)c(OC)c(OC)c3)CC2)c2cccc(C(F)(F)F)c2)cc1OC [Example 33, 1-[(E)-3-(3,4-Dimethoxyphenyl)-3-(3-trifluoromethylphenyl)acryloyl]-4-(3,4,5-trimethoxybenzoyl)piperazine]	7.8 µg/kg
6.66	–	COc1ccc(/C(=C\C(=O)N2CCN(C(=O)c3cc(OC)c(OC)c(OC)c3)CC2)c2ccc(C)cc2)cc1OC [Example 36, 1-[(Z)-3-(3,4-Dimethoxyphenyl)-3-(4-methylphenyl)acryloyl]-4-(3,4,5-trimethoxybenzoyl)piperazine]	39 µg/kg
7.08	–	CCCOc1cccc(/C(=C/C(=O)N2CCN(C(=O)c3cc(OC)c(OC)c(OC)c3)CC2)c2ccccc2)c1 [Example 76, 1-[(E)-3-(3-Propoxyphenyl)-3-phenylacryloyl]-4-(3,4,5-trimethoxybenzoyl)piperazine]	9.2 µg/kg
–	7.82	COc1cccc(/C(=C\C(=O)N2CCN(C(=O)c3cc(OC)c(OC)c(OC)c3)CC2)c2cccc(Cl)c2)c1 [Example 44, 1-[(E)-3-(3-Chlorophenyl)-3-(3-methoxyphenyl)acryloyl]-4-(3,4,5-trimethoxybenzoyl)piperazine]	7.5 µg/kg
–	7.40	COc1ccc(/C(=C/C(=O)N2CCN(C(=O)c3cc(OC)c(OC)c(OC)c3)CC2)c2cc(C(F)(F)F)cc(C(F)(F)F)c2)cc1 [Example 84, 1-[(Z)-3-(4-Methoxyphenyl)-3-(3,5-di-trifluoromethylphenyl)acryloyl]-4-(3,4,5-trimethoxybenzoyl)piperazine]	8.6 µg/kg
–	7.85	CCc1ccc(/C(=C/C(=O)N2CCN(C(=O)c3cc(OC)c(OC)c(OC)c3)CC2)c2cccc(Cl)c2)cc1 [Example 83, 1-[(Z)-3-(4-Ethylphenyl)-3-(3-chlorophenyl)acryloyl]-4-(3,4,5-trimethoxybenzoyl)piperazine]	11 µg/kg

Reference: patent US5192766A, “N-acryloylpiperazine derivatives, their preparation and their use as PAF antagonists” (Sankyo Company, Limited, priority 1989, dated 1993)
